The values that follow come from patent US12290588B2, “Peptide having activity of improving skin condition and use thereof” (CAREGEN CO., LTD., priority 2019, dated 2025).

The subject of one assay is procollagen 1α. As to the kind of experiment: Procollagen 1α ELISA in fibroblast medium. It counts as cell-based. The following applies: NIH3T3 mouse fibroblasts, peptide 10, 50 or 100 μM, 24 hours, ELISA of medium (FIG. 1). The procedure: NIH3T3 mouse fibroblasts were seeded in a 6-well plate at a density of 5×10^3 cells/well, and cultured for 16 hours. Afterwards, the culture medium was replaced with a serum-free medium, the peptide consisting of the amino acid sequence of SEQ ID NO: 1 was added thereto at a concentration of 10 μM, 50 μM, or 100 μM, and the cells were cultured for 24 hours. Then, the amount of procollagen 1α in the medium was measured by using a Procollagen 1α ELISA kit (Us biological lifescience, USA). Meanwhile, a non-treated group (Con) was used as a control group, and a group to which 100 nM of bFGF was added and a group to which 5 ng/ml of TGF-β1 was added were used as positive control groups.

The test system of another assay is PPAR-γ. As to the kind of experiment: RT-PCR of PPAR-γ expression in fibroblasts. It is filed as cell-based. The following applies: NIH3T3 mouse fibroblasts, peptide 10, 50 or 100 μM, 24 hours, PCR (FIG. 2). The procedure: (§1) In this example, an effect the peptide according to an embodiment on the cellular activity of fibroblasts was to be confirmed by measuring the expression levels of PPAR-γ, PPAR-δ, and PGC-1α, which are mitochondrial biogenesis-related genes. In detail, NIH3T3 mouse fibroblasts were seeded in a 6-well plate at a density of 3×10^5 cells/well, and cultured for 16 hours. Afterwards, the culture medium was replaced with a serum-free medium, the peptide consisting of the amino acid sequence of SEQ ID NO: 1 was added thereto at a concentration of 10 μM, 50 μM, or 100 μM, and the cells were cultured for 24 hours. Then, mRNA was extracted from the cultured cells, and reverse-transcribed into cDNA by using a cDNA synthesis kit and PCR pre-mix (Intron, Korea). Afterwards, a polymerase chain reaction (PCR) was performed by using the cDNA and primers of PPAR-γ, PPAR-δ, and PGC-1α. Meanwhile, a control group and positive groups were used in the same manner as in Example 2, and the nucleotide sequences of the primers used herein are shown in Table 2.

Another assay has as its system PPAR-δ. As to the kind of experiment: RT-PCR of PPAR-δ expression in fibroblasts. It counts as cell-based. The following applies: NIH3T3 mouse fibroblasts, peptide 10, 50 or 100 μM, 24 hours, PCR (FIG. 2). The procedure:
as §1

The next assay deals with PGC-1α. The assay can be described thus: RT-PCR of PGC-1α expression in fibroblasts. It counts as cell-based. The following applies: NIH3T3 mouse fibroblasts, peptide 10, 50 or 100 μM, 24 hours, PCR (FIG. 2). As for the experimental part: as §1
The subject of assay [1] is cleaved caspase-3. The assay can be described thus: Western blotting of cleaved caspase-3 in UV-irradiated fibroblasts. It counts as cell-based, mouse. The following applies: NIH3T3 fibroblasts, UV 6 J/cm^2, peptide 10, 50 or 100 μM before and 24 hours after irradiation, western blotting (FIG. 3). As for the experimental part:
(§2) NIH3T3 mouse fibroblasts or HaCaT human keratinocytes were respectively seeded in a 6-sell plate at a density of 3×10^5 cells/well, and cultured for 16 hours. Afterwards, the culture medium was replaced with a serum-free medium, the peptide consisting of the amino acid sequence of SEQ ID NO: 1 was added thereto at a concentration of 10 μM, 50 μM, or 100 μM, and the cells were cultured for 1 hour. Each well containing the cultured cells was washed with phosphate buffered saline (PBS), and the NIH3T3 cells or HaCaT cells were respectively irradiated with ultraviolet light of 6 J/cm^2 or 15 J/cm^2, so as to induce an increase in the expression of apoptosis proteins. Afterwards, the culture medium was replaced with a serum-free medium, the peptide consisting of the amino acid sequence of SEQ ID NO: 1 was added thereto at a concentration of 10 μM, 50 μM, or 100 μM, and the cells were cultured for 24 hours. Cell lysates were obtained by adding a lysis buffer to the cultured cells, and then, western blotting was performed thereon by using cleaved PARP-1 and cleaved caspase-3 antibodies (Santacruz biotechnology, USA). Meanwhile, a non-treated group (Con) was used as a control group. […]

In a further assay the test system is cleaved PARP-1. As to the kind of experiment: Western blotting of cleaved PARP-1 in UV-irradiated keratinocytes. It is filed as cell-based, human. The following applies: HaCaT keratinocytes, UV 15 J/cm^2, peptide 10, 50 or 100 μM before and 24 hours after irradiation, western blotting (FIG. 4). The procedure: as §2
For assay [2], the system named is cleaved caspase-3. As to the kind of experiment: Western blotting of cleaved caspase-3 in UV-irradiated keratinocytes. It is filed as cell-based, human. The following applies: HaCaT keratinocytes, UV 15 J/cm^2, peptide 10, 50 or 100 μM before and 24 hours after irradiation, western blotting (FIG. 4). As for the experimental part:
as §2

Another assay has as its system MMP-1. As to the kind of experiment: Western blotting of MMP-1 in UV-irradiated fibroblasts. It counts as cell-based, mouse. The following applies: NIH3T3 fibroblasts, UV 6 J/cm^2, peptide 10, 50 or 100 μM before and 24 hours after irradiation, western blotting (FIG. 5). As for the experimental part: (§3) NIH3T3 mouse fibroblasts were seeded in a 6-well plate at a density of 3×10^5 cells/well, and cultured for 16 hours. Afterwards, the culture medium was replaced with a serum-free medium, the peptide consisting of the amino acid sequence of SEQ ID NO: 1 was added thereto at a concentration of 10 μM, 50 μM, or 100 μM, and the cells were cultured for 1 hour. Each well containing the cultured cells was washed with PBS, and the NIH3T3 cells were irradiated with ultraviolet light of 6 J/cm^2, so as to induce an increase in the expression of MMP-1 and MMP-2. Afterwards, the culture medium was replaced with a serum-free medium, the peptide consisting of the amino acid sequence of SEQ ID NO: 1 was added thereto at a concentration of 10 μM, 50 μM, or 100 μM, and the cells were cultured for 24 hours. Afterwards, cell lysates were obtained by adding a lysis buffer to the cultured cells, and then, western blotting was performed thereon by using MMP-1 antibodies (cell signaling, USA) to measure the expression of MMP-1.

The test system of the next assay is MMP-2. The assay can be described thus: Gelatin zymography of MMP-2 activity in UV-irradiated fibroblasts. The following applies: NIH3T3 fibroblasts, UV 6 J/cm^2, peptide 10, 50 or 100 μM before and 24 hours after irradiation, gelatin zymography (FIG. 5). It is filed as cell-based, mouse. The procedure: as §3
Meanwhile, the cell lysates were subjected to gelatin zymography to measure the activity of MMP-2. In detail, after protein electrophoresis (SDS-PAGE) was performed by using 2 mg/ml of gelatin as a substrate. […]

A further assay has as its system Col1a1. The assay can be described thus: RT-PCR of Col1a1 expression in UV-irradiated fibroblasts. It counts as cell-based, mouse. The following applies: NIH3T3 fibroblasts, UV 6 J/cm^2, peptide 10, 50 or 100 μM before and 6 hours after irradiation, PCR (FIG. 6). As for the experimental part:
(§4) In this example, changes in the cellular activity of fibroblasts were evaluated through the expression of Col1a1, Fibronectin, and Elastin, which are known as components of the dermis. Also, changes in the cellular activity of keratinocytes were evaluated through the expression of SIRT1, which is an anti-aging gene, and AQP3, which is a component of the skin barrier. Based on the evaluation results, the effect of the peptide according to an embodiment on the restoration of the cellular activity of the fibroblasts and keratinocytes was confirmed. In detail, NIH3T3 mouse fibroblasts or HaCaT human keratinocytes were respectively seeded in a 6-sell plate at a density of 3×10^5 cells/well, and cultured for 16 hours. Afterwards, the culture medium was replaced with a serum-free medium, the peptide consisting of the amino acid sequence of SEQ ID NO: 1 was added thereto at a concentration of 10 μM, 50 μM, or 100 μM, and the cells were cultured for 1 hour. Each well containing the cultured cells was washed with PBS, and the NIH3T3 cells or the HaCaT cells were respectively irradiated with ultraviolet light of 6 J/cm^2 or 20 J/cm^2, so as to induce inhibition of the cellular activity. […]

The test system of another assay is Fibronectin. As to the kind of experiment: RT-PCR of Fibronectin expression in UV-irradiated fibroblasts. It is filed as cell-based, mouse. The following applies: NIH3T3 fibroblasts, UV 6 J/cm^2, peptide 10, 50 or 100 μM before and 6 hours after irradiation, PCR (FIG. 6). The procedure:
as §4

A further assay deals with Elastin. As to the kind of experiment: RT-PCR of Elastin expression in UV-irradiated fibroblasts. The following applies: NIH3T3 fibroblasts, UV 6 J/cm^2, peptide 10, 50 or 100 μM before and 6 hours after irradiation, PCR (FIG. 6). It counts as cell-based, mouse. The procedure: as §4
Another assay has as its system SIRT1. As to the kind of experiment: RT-PCR of SIRT1 expression in UV-irradiated keratinocytes. It counts as cell-based, human. The following applies: HaCaT keratinocytes, UV 20 J/cm^2, peptide 10, 50 or 100 μM before and 6 hours after irradiation, PCR (FIG. 7). As for the experimental part: as §4
The subject of a further assay is AQP3. As to the kind of experiment: RT-PCR of AQP3 expression in UV-irradiated keratinocytes. It is filed as cell-based, human. The following applies: HaCaT keratinocytes, UV 20 J/cm^2, peptide 10, 50 or 100 μM before and 6 hours after irradiation, PCR (FIG. 7). As for the experimental part: as §4
Another assay deals with TNF-α. The assay can be described thus: RT-PCR of TNF-α expression in UV-irradiated keratinocytes. It is filed as cell-based, human. The following applies: HaCaT keratinocytes, peptide 10, 50 or 100 μM for 1 hour, UV 15 J/cm^2, PCR (FIG. 8). As for the experimental part:
(§5) HaCaT human keratinocytes were seeded in a 6-well plate at a density of 3×10^5 cells/well, and cultured for 16 hours. Afterwards, the culture medium was replaced with a serum-free medium, the peptide consisting of the amino acid sequence of SEQ ID NO: 1 was added thereto at a concentration of 10 μM, 50 μM, or 100 μM, and the cells were cultured for 1 hour. Each well containing the cultured cells was washed with PBS, and the HaCaT cells were irradiated with ultraviolet light of 15 J/cm^2, so as to induce an increase in the expression of inflammatory cytokine which is an inflammatory factor. Then, mRNA was extracted from the cultured cells, and reverse-transcribed into cDNA by using a cDNA synthesis kit and PCR pre-mix (Intron, Korea). Afterwards, PCR was performed by using the cDNA and primers of TNF-α, COX-2, IL-1β, and IL-6. Meanwhile, a control group and a positive group were used in the same manner as in Example 4, and the nucleotide sequences of the primers used herein are shown in Table 5.

Another assay deals with COX-2. As to the kind of experiment: RT-PCR of COX-2 expression in UV-irradiated keratinocytes. It is filed as cell-based, human. The following applies: HaCaT keratinocytes, peptide 10, 50 or 100 μM for 1 hour, UV 15 J/cm^2, PCR (FIG. 8). The procedure:
as §5

The test system of the next assay is IL-1β. As to the kind of experiment: RT-PCR of IL-1β expression in UV-irradiated keratinocytes. It counts as cell-based, human. The following applies: HaCaT keratinocytes, peptide 10, 50 or 100 μM for 1 hour, UV 15 J/cm^2, PCR (FIG. 8). As for the experimental part: as §5
A further assay deals with IL-6. As to the kind of experiment: RT-PCR of IL-6 expression in UV-irradiated keratinocytes. It is filed as cell-based, human. The following applies: HaCaT keratinocytes, peptide 10, 50 or 100 μM for 1 hour, UV 15 J/cm^2, PCR (FIG. 8). As for the experimental part: as §5

On to ECEELEEK (Peptide 1) [SEQ ID NO: 1], for which the “expression of procollagen 1α” value in the assay on procollagen 1α is reported as “increased”. For the same sequence, in the assay with PPAR-γ, the “expression of PPAR-γ” value is “increased”. The “expression of PPAR-δ” value in the assay on PPAR-δ was “increased”. Moreover, the “expression of PGC-1α” value in the assay with PGC-1α was “increased”. Moreover, the “expression of cleaved caspase-3 increased by ultraviolet irradiation” value was “reduced” with cleaved caspase-3 [1] and “significantly reduced” in the assay on cleaved caspase-3 [2]. Moreover, the “expression of cleaved PARP-1 increased by ultraviolet irradiation” value in the assay with cleaved PARP-1 is “significantly reduced”. Besides, the “expression of MMP-1 increased by ultraviolet irradiation” value in the assay with MMP-1 is given as “reduced”. Further, the “activity of MMP-2 increased by ultraviolet irradiation” value in the assay with MMP-2 is on record as “reduced”. In addition, the “expression of Col1 a1 inhibited by ultraviolet irradiation” value with Col1a1 is “restored back to normal levels”. Besides, the “expression of Fibronectin inhibited by ultraviolet irradiation” value with Fibronectin was “restored back to normal levels”. Also, the “expression of Elastin inhibited by ultraviolet irradiation” value in the assay with Elastin is given as “restored back to normal levels”. In addition, in the assay with SIRT1, the “expression of SIRT1 reduced by ultraviolet irradiation” value is reported as “restored”. For the same sequence, the “expression of AQP3 reduced by ultraviolet irradiation” value in the assay with AQP3 is reported as “restored”. In addition, in the assay on TNF-α, the “expression of TNF-α increased by ultraviolet irradiation” value is “reduced”. Further, in the assay on COX-2, the “expression of COX-2 increased by ultraviolet irradiation” value is listed as “reduced”. Besides, in the assay with IL-1β, the “expression of IL-1β increased by ultraviolet irradiation” value is reported as “reduced”. In addition, in the assay on IL-6, the “expression of IL-6 increased by ultraviolet irradiation” value is listed as “reduced”.
